Reference: PubChem BioAssay (NCI)
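All cell lines were grown in 96-well plates and treated with compound for 48 hours. The concentration for 50% growth inhibition is given as GI50. TGI: total growth inhibition.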

Legend:
Assay in all cases: DTP human tumour cell line panel, 48 h
786-0 renal = system: 786-0 renal
A498 renal = system: A498 renal
A549 NSCLC = system: A549 NSCLC
ACHN renal = system: ACHN renal
BT-549 breast = system: BT-549 breast
CAKI-1 renal = system: CAKI-1 renal
CCRF-CEM leukemia = system: CCRF-CEM leukemia
COLO 205 colon = system: COLO 205 colon
DU-145 prostate = system: DU-145 prostate
HCC-2998 colon = system: HCC-2998 colon
HCT-116 colon = system: HCT-116 colon
HCT-15 colon = system: HCT-15 colon
HL-60(TB) leukemia = system: HL-60(TB) leukemia
HOP-62 NSCLC = system: HOP-62 NSCLC
HOP-92 NSCLC = system: HOP-92 NSCLC
HS 578T breast = system: HS 578T breast
HT29 colon = system: HT29 colon
IGROV1 ovarian = system: IGROV1 ovarian
K-562 leukemia = system: K-562 leukemia
KM12 colon = system: KM12 colon
LOX IMVI melanoma = system: LOX IMVI melanoma
M14 melanoma = system: M14 melanoma
MALME-3M melanoma = system: MALME-3M melanoma
MCF7 breast = system: MCF7 breast
MDA-MB-231 breast = system: MDA-MB-231 breast
MDA-MB-435 = system: MDA-MB-435
MOLT-4 leukemia = system: MOLT-4 leukemia
NCI-H226 lung = system: NCI-H226 lung
NCI-H460 lung = system: NCI-H460 lung
NCI-H522 lung = system: NCI-H522 lung
NCI/ADR-RES ovarian = system: NCI/ADR-RES ovarian
OVCAR-3 ovarian = system: OVCAR-3 ovarian
OVCAR-4 ovarian = system: OVCAR-4 ovarian
OVCAR-5 ovarian = system: OVCAR-5 ovarian
OVCAR-8 ovarian = system: OVCAR-8 ovarian
RPMI-8226 leukemia = system: RPMI-8226 leukemia
RXF 393 renal = system: RXF 393 renal
SF-268 CNS = system: SF-268 CNS
SF-295 CNS = system: SF-295 CNS
SF-539 CNS = system: SF-539 CNS
SK-MEL-2 melanoma = system: SK-MEL-2 melanoma
SK-MEL-28 melanoma = system: SK-MEL-28 melanoma
SK-MEL-5 melanoma = system: SK-MEL-5 melanoma
SK-OV-3 ovarian = system: SK-OV-3 ovarian
SN12C renal = system: SN12C renal
SNB-19 CNS = system: SNB-19 CNS
SNB-75 CNS = system: SNB-75 CNS
SR leukemia = system: SR leukemia
SW-620 colon = system: SW-620 colon
T-47D breast = system: T-47D breast
TK-10 renal = system: TK-10 renal
U251 CNS = system: U251 CNS
UACC-257 melanoma = system: UACC-257 melanoma
UO-31 renal = system: UO-31 renal

Compound: O=C(N/N=C/c1ccc(N(CCCl)CCCl)cc1)c1ccc(C(=O)N/N=C/c2ccc(N(CCCl)CCCl)cc2)cc1
- GI50 (786-0 renal): 2.55 µM
- TGI (786-0 renal): > 100 µM
- GI50 (A498 renal): 15.1 µM
- TGI (A498 renal): > 100 µM
- GI50 (A549 NSCLC): 3.08 µM
- TGI (A549 NSCLC): > 100 µM
- GI50 (ACHN renal): 6.8 µM
- TGI (ACHN renal): > 100 µM
- GI50 (BT-549 breast): 2.34 µM
- TGI (BT-549 breast): 76.5 µM
- GI50 (CAKI-1 renal): 72.3 µM
- TGI (CAKI-1 renal): > 100 µM
- GI50 (CCRF-CEM leukemia): 0.0349 µM
- TGI (CCRF-CEM leukemia): > 100 µM
- GI50 (COLO 205 colon): 15.8 µM
- TGI (COLO 205 colon): > 100 µM
- GI50 (DU-145 prostate): 0.341 µM
- TGI (DU-145 prostate): > 100 µM
- GI50 (HCC-2998 colon): 86.8 µM
- TGI (HCC-2998 colon): > 100 µM
- GI50 (HCT-116 colon): 2.48 µM
- TGI (HCT-116 colon): > 100 µM
- GI50 (HCT-15 colon): > 100 µM
- TGI (HCT-15 colon): > 100 µM
- TGI (HL-60(TB) leukemia): > 100 µM
- GI50 (HOP-62 NSCLC): 0.653 µM
- TGI (HOP-62 NSCLC): > 100 µM
- GI50 (HOP-92 NSCLC): 4.98 µM
- TGI (HOP-92 NSCLC): 88.3 µM
- GI50 (HS 578T breast): 3.54 µM
- TGI (HS 578T breast): > 100 µM
- GI50 (HT29 colon): 0.801 µM
- TGI (HT29 colon): > 100 µM
- GI50 (IGROV1 ovarian): 20.7 µM
- TGI (IGROV1 ovarian): > 100 µM
- GI50 (K-562 leukemia): 20.9 µM
- TGI (K-562 leukemia): > 100 µM
- GI50 (KM12 colon): 15.8 µM
- TGI (KM12 colon): > 100 µM
- GI50 (LOX IMVI melanoma): 1.4 µM
- TGI (LOX IMVI melanoma): > 100 µM
- GI50 (M14 melanoma): 3.79 µM
- TGI (M14 melanoma): > 100 µM
- GI50 (MALME-3M melanoma): 11.2 µM
- TGI (MALME-3M melanoma): > 100 µM
- GI50 (MCF7 breast): 0.38 µM
- TGI (MCF7 breast): > 100 µM
- GI50 (MDA-MB-231 breast): 4.73 µM
- TGI (MDA-MB-231 breast): > 100 µM
- GI50 (MDA-MB-435): 29.8 µM
- TGI (MDA-MB-435): > 100 µM
- GI50 (MOLT-4 leukemia): 0.226 µM
- TGI (MOLT-4 leukemia): > 100 µM
- GI50 (NCI-H226 lung): 57.4 µM
- TGI (NCI-H226 lung): > 100 µM
- GI50 (NCI-H460 lung): 0.038 µM
- TGI (NCI-H460 lung): > 100 µM
- GI50 (NCI-H522 lung): 0.465 µM
- TGI (NCI-H522 lung): > 100 µM
- GI50 (NCI/ADR-RES ovarian): > 100 µM
- TGI (NCI/ADR-RES ovarian): > 100 µM
- GI50 (OVCAR-3 ovarian): 19 µM
- TGI (OVCAR-3 ovarian): > 100 µM
- GI50 (OVCAR-4 ovarian): 47.9 µM
- TGI (OVCAR-4 ovarian): > 100 µM
- GI50 (OVCAR-5 ovarian): 71.5 µM
- TGI (OVCAR-5 ovarian): > 100 µM
- GI50 (OVCAR-8 ovarian): 12.9 µM
- TGI (OVCAR-8 ovarian): > 100 µM
- GI50 (RPMI-8226 leukemia): 1.33 µM
- TGI (RPMI-8226 leukemia): 15.1 µM
- GI50 (RXF 393 renal): 7.63 µM
- TGI (RXF 393 renal): > 100 µM
- GI50 (SF-268 CNS): 0.284 µM
- TGI (SF-268 CNS): 27.8 µM
- GI50 (SF-295 CNS): 0.213 µM
- TGI (SF-295 CNS): > 100 µM
- GI50 (SF-539 CNS): 0.612 µM
- TGI (SF-539 CNS): 47.3 µM
- GI50 (SK-MEL-2 melanoma): 2.13 µM
- TGI (SK-MEL-2 melanoma): 33.3 µM
- GI50 (SK-MEL-28 melanoma): > 100 µM
- TGI (SK-MEL-28 melanoma): > 100 µM
- GI50 (SK-MEL-5 melanoma): 18.1 µM
- TGI (SK-MEL-5 melanoma): > 100 µM
- GI50 (SK-OV-3 ovarian): 10.5 µM
- TGI (SK-OV-3 ovarian): > 100 µM
- GI50 (SN12C renal): 0.232 µM
- TGI (SN12C renal): > 100 µM
- GI50 (SNB-19 CNS): 38.6 µM
- TGI (SNB-19 CNS): > 100 µM
- GI50 (SNB-75 CNS): 6.74 µM
- TGI (SNB-75 CNS): > 100 µM
- TGI (SR leukemia): > 100 µM
- GI50 (SW-620 colon): 19.5 µM
- TGI (SW-620 colon): > 100 µM
- GI50 (T-47D breast): 5.54 µM
- TGI (T-47D breast): > 100 µM
- GI50 (TK-10 renal): > 100 µM
- TGI (TK-10 renal): > 100 µM
- GI50 (U251 CNS): 0.346 µM
- TGI (U251 CNS): 17.1 µM
- GI50 (UACC-257 melanoma): > 100 µM
- TGI (UACC-257 melanoma): > 100 µM
- GI50 (UO-31 renal): > 100 µM
- TGI (UO-31 renal): > 100 µM
